Test results: paper PMC6801819, “Exogenous Iron Increases Fasciocidal Activity and Hepatocellular Toxicity of the Synthetic Endoperoxides OZ78 and MT04” (International Journal of Molecular Sciences, 2019)

Tests used:
HepG2 cells = experiment: Adenylate kinase leakage (membrane integrity test); format: cell-based, human; conditions: 24 h, HepG2; for increase in AK release as compared to DMSO control / membrane integrity: 500 µM alone (OZ78, MT04: up to 500 µM)
Method: Stock solutions of the drugs tested were prepared in DMSO 100% (v/v).
In viability assays, HepG2 cells were treated with 0.1% Triton-X or 0.1% DMSO for positive or negative control, respectively.
The assay was used according to the protocol supplied by the manufacturer.

F. hepatica = conditions: rats infected with F. hepatica, single oral dose AS 200 mg/kg, OZ78 100 mg/kg, MT04 50 mg/kg; cited from earlier work
[1] = tested on: complex IV of the mitochondrial electron transport chain; experiment: High-resolution respirometry, TMPD/ascorbate + antimycin A (complex IV); format: cell-based, human; conditions: AS 100 µM, OZ78 500 µM, MT04 500 µM, 24 h, permeabilized HepG2
Method: (§1) After incubation with different drugs for 24 h, HepG2 cells were trypsinized and resuspended in DMEM with 10% fetal calf serum (FCS) and then centrifuged for 5 min (180× g). Cells were resuspended in MiRo5 respiration buffer (110 mM sucrose, 0.5 mM ethylene glycol-bis(β-aminoethyl ether)-N,N,N′,N′-tetraacetic acid (EGTA), 3.0 mM MgCl2, 80 mM KCl, 60 mM K-lactobionate, 10 mM KH2PO4, 20 mM taurine, 20 mM Hepes, 1.0 g/L BSA, pH 7.1). Respiration rates were measured at 37 °C using a high-resolution oxygraph (Oxygraph-2k, Oroboros Instruments, Innsbruck, Austria). Respiration rates were calculated as the time derivative of oxygen concentration measured in the closed respirometer. The amplified signal was recorded in a computer with an online display of the calibrated oxygen concentration and oxygen flux (DatLab software for data acquisition and analysis; Oroboros Instruments). The mitochondrial complex activity was assessed by a standard titration protocol: first cells were permeabilized with digitonin (10 µg/1 million cells) for 5 min. Afterward, for complex I-dependent maximal respiration stimulation, substrates added were glutamate (10 mM) and malate (5 mM), which provide nicotinamide adenine dinucleotide (NADH) to the respiratory chain (complex I activation), followed by addition of ADP (2.5 mM) (state 3, maximal respiration). After a stable signal was reached and marked, rotenone (0.5 µM) was added to inhibit complex I, and then complex II-dependent respiration was stimulated by adding succinate (10 mM), which provides flavin adenine dinucleotide (FADH) to the respiratory chain (complex II activation, state 3). Afterward, complex III was inhibited by antimycin A (2.5 µM), and complex IV-dependent respiration was measured by adding ascorbate (2 mM) and N,N,N′,N′-tetramethyl-p-phenylendiamine (TMPD, 0.5 mM). We confirmed the integrity of the outer mitochondrial membrane by showing the absence of a stimulatory effect of exogenous cytochrome c (10 µM) on respiration. Respiration was expressed as oxygen consumption per 5 × 10^5 cells.

[2] = tested on: complex I of the mitochondrial electron transport chain; experiment: High-resolution respirometry, glutamate/malate (complex I); format: cell-based, human; conditions: AS 100 µM, OZ78 500 µM, MT04 500 µM, 24 h, permeabilized HepG2, vs DMSO
Method: as §1

adult F. hepatica = experiment: In vitro/ex vivo adult worm viability assay; format: cell-based, Fasciola hepatica; conditions: for viability of adult F. hepatica (viability score): score 4 normal activity to 1 death; for viability of adult F. hepatica: 48 h
Method: The experiments were performed, as described previously. Adult F. hepatica were collected from bovine liver bile ducts obtained from the local slaughterhouse (Basel, Switzerland). After careful washing, a single adult worm was placed per well (6-well plate, Costar, MA, USA) containing 5.4 mL RPMI 1640 (Gibco, N.Y., USA), supplemented with 1% (v/v) antibiotics (50 µg/mL streptomycin and 50 U/mL penicillin), 1% (v/v) drug solution, […] Control worms were incubated in 1% (v/v) DMSO combined with iron or hemin. Experiments were conducted in triplicates and repeated once. Cultures were kept at 37 °C in an atmosphere of 5% CO2. The viabilities of treated and untreated worms were monitored at 0, 24, 48, and 72 h. Worms were examined by eye and/or using a dissecting microscope (20× lenses). The viability of adult flukes was scored using the following scale: 4: normal activity; movements were visible without a microscope, 3: reduced activities, 2: very weak activities detected only using microscopic magnification, and 1: death of worm (no movement observed for two min using a microscope).

NMRI mice = experiment: Liver toxicity study in mice (plasma AST, aPhos, bilirubin, liver histology); format: in vivo, mouse; conditions: for Histopathologic observation: liver 8 hours; for plasma alkaline phosphatase (aPhos) / plasma aspartate aminotransferase (AST) / total serum bilirubin: single oral dose 200-800 mg/kg, 8 h post-treatment
Method: All animal studies were carried out at the Swiss Tropical and Public Health Institute (Basel, Switzerland) and were approved by Swiss and cantonal authorities (permission: 2070). Female NMRI mice (age: 3–4 weeks, weight: ~20 g) were purchased from Harlan Laboratories (Horst, The Netherlands). Mice were kept in groups of 10 animals in macrolon-cages in environmentally controlled conditions (temperature: ~25 °C; humidity: ~70%; 12 h light/dark cycle) and acclimatized for one week. They had free access to water and rodent diet. For the in vivo studies AS, OZ78 or MT04 were suspended in 7% (v/v) Tween-80 and 3% (v/v) ethanol.
Since treatment of F. hepatica infections in animals is typically performed by a single oral dose, we performed a pilot study to find out the best time point to kill the mice at which we could observe hepatic toxicity after drug application. This time point was 8 h after drug application (data not shown).
In the final experiment, mice were treated with 200, 400, or 800 mg/kg AS, OZ78, or MT04 by oral gavage. Seven mice were left untreated for control measurements. According to the results of the pilot experiments, where we measured the highest increase in total serum bilirubin, AST or alkaline phosphatase 8 h post-treatment, mice were euthanized by CO2 8 h post-treatment, blood was collected and analyzed as described above. After blood collection, the liver was removed, carefully examined macroscopically, and gross lesions were recorded. Livers were then stored in formalin 10% (v/v) until fixation in 4% paraformaldehyde was performed. After embedding in paraffin, sections of 5 μm thickness were obtained, stained with hematoxylin and eosin, and examined using light microscopy.

[3] = 50 µg/mL drug + Fe2+ (iron), 72 h

SMILES: O=C(O)C[C@H]1CC[C@]2(CC1)OOC1(O2)C2CC3CC(C2)CC1C3 (stereo partly drawn) [OZ78]
- increase in AK release as compared to DMSO control / membrane integrity (HepG2 cells): did not impair membrane integrity
- release of AK, increase as compared to DMSO (HepG2 cells; combined treatment with Fe2+, concentration not given): did not
- killing of juvenile and adult liver flukes in vivo (F. hepatica): efficiently killed juvenile and adult liver flukes
- decrease of maximal ADP-stimulated respiration rate, TMPD/ascorbate + antimycin A (complex IV) [1]: only numerically, but without reaching statistical significance
- inhibition of maximal ADP-stimulated respiration rate, glutamate + malate (complex I) [2]: did not significantly impair mitochondrial function
- viability of adult F. hepatica (viability score) (adult F. hepatica; 50 µg/mL drug + Fe2+ (iron), 24 h): 3
- viability of adult F. hepatica (adult F. hepatica; 50 µg/mL drug + Fe2+ (iron)): more efficient in impairing worm viability than OZ78 alone
- viability of adult F. hepatica (viability score) (adult F. hepatica; [3]): 2
- viability of adult F. hepatica (viability score) (adult F. hepatica; 50 µg/mL drug + hemin, 24 h): 3
- viability of adult F. hepatica (adult F. hepatica; 50 µg/mL drug + hemin): more efficient in impairing worm viability than OZ78 alone
- viability of adult F. hepatica (viability score) (adult F. hepatica; 50 µg/mL drug + hemin, 72 h): 2
- viability of adult F. hepatica (viability score) (adult F. hepatica; 50 µg/mL drug alone, 24 h): no effect on worm vitality
- viability of adult F. hepatica (viability score) (adult F. hepatica; 50 µg/mL drug alone, 72 h): 2
- Histopathologic observation (NMRI mice; 200 mg/kg oral, mouse 1): No lesions
- Histopathologic observation (NMRI mice; 200 mg/kg oral, mouse 2): Slight hydropic degeneration
- Histopathologic observation (NMRI mice; 200 mg/kg oral, mouse 3): Slight hydropic degeneration
- Histopathologic observation (NMRI mice; 200 mg/kg oral, mouse 4): No lesions
- Histopathologic observation (NMRI mice; 400 mg/kg oral, mouse 1): Slight hydropic degeneration
- Histopathologic observation (NMRI mice; 400 mg/kg oral, mouse 2): Passive congestion
- Histopathologic observation (NMRI mice; 400 mg/kg oral, mouse 3): Nuclear polymorphism
- Histopathologic observation (NMRI mice; 400 mg/kg oral, mouse 4): Slight hydropic degeneration
- Histopathologic observation (NMRI mice; 800 mg/kg oral, mouse 1): Slight hydropic degeneration
- Histopathologic observation (NMRI mice; 800 mg/kg oral, mouse 2): No lesions
- Histopathologic observation (NMRI mice; 800 mg/kg oral, mouse 3): Passive congestion
- Histopathologic observation (NMRI mice; 800 mg/kg oral, mouse 4): Slight hydropic degeneration
- liver histology, group summary (NMRI mice; mice, 200 mg/kg oral, 8 h): two mice (out of four) with slight hydropic degeneration of hepatocytes
- liver histology, group summary (NMRI mice; mice, 400 mg/kg oral, 8 h): two mice (out of four) with slight hydropic degeneration of hepatocytes
- liver histology, group summary (NMRI mice; mice, 800 mg/kg oral, 8 h): two mice (out of four) with slight hydropic degeneration of hepatocytes
- plasma alkaline phosphatase (aPhos) (NMRI mice; mice): in the normal range
- plasma aspartate aminotransferase (AST) (NMRI mice; mice): in the normal range
- total serum bilirubin (NMRI mice; mice): in the normal range
- hepatic toxicity in vivo (overall) (NMRI mice; mice, single oral doses up to 800 mg/kg, 8 h): no relevant hepatic toxicity

SMILES: C[C@H]1[C@H](OC(=O)CCC(=O)O)O[C@@H]2O[C@@]3(C)CC[C@H]4[C@H](C)CC[C@@H]1[C@@]24OO3 [AS, artesunate, reference compound]
- membrane leakage (AK release) as compared to DMSO control (HepG2 cells; 100 µM + Fe2+): 320%
- increase in AK release as compared to DMSO control (HepG2 cells; 100 µM alone): 190%
- increase in AK release as compared to DMSO control / membrane integrity (HepG2 cells): 270%
- killing of juvenile and adult liver flukes in vivo (F. hepatica): efficiently killed juvenile and adult liver flukes
- decrease of maximal ADP-stimulated respiration rate, TMPD/ascorbate + antimycin A (complex IV) [1]: 47%
- inhibition of maximal ADP-stimulated respiration rate, glutamate + malate (complex I) [2]: 75%
- viability of adult F. hepatica (viability score) (adult F. hepatica; [3]): death of the worms
- viability of adult F. hepatica (viability score) (adult F. hepatica; 50 µg/mL drug + hemin, 72 h): death of the worms
- viability of adult F. hepatica (viability score) (adult F. hepatica; 50 µg/mL drug alone, 72 h): death of the worms
- Histopathologic observation (NMRI mice; 200 mg/kg oral, mouse 1): No lesions
- Histopathologic observation (NMRI mice; 200 mg/kg oral, mouse 2): No lesions
- Histopathologic observation (NMRI mice; 200 mg/kg oral, mouse 3): No lesions
- Histopathologic observation (NMRI mice; 400 mg/kg oral, mouse 1): No lesions
- Histopathologic observation (NMRI mice; 400 mg/kg oral, mouse 2): No lesions
- Histopathologic observation (NMRI mice; 400 mg/kg oral, mouse 3): Beginning nodular regeneration
- Histopathologic observation (NMRI mice; 800 mg/kg oral, mouse 1): Steatosis
- Histopathologic observation (NMRI mice; 800 mg/kg oral, mouse 2): Small area of confluent necrosis
- Histopathologic observation (NMRI mice; 800 mg/kg oral, mouse 3): No lesions
- liver histology, group summary (NMRI mice; mice, 200 mg/kg oral, 8 h): not associated with liver injury
- liver histology, group summary (NMRI mice; mice, 800 mg/kg oral, 8 h): one mouse was without lesions, one with steatosis, and one with confluent necrosis
- time of highest values of AST, aPhos and total serum bilirubin (pilot study) (NMRI mice; mice, single oral dose 400 mg/kg, sampled 2, 4, 8, 12, 24 h): 8 h
- plasma alkaline phosphatase (aPhos) (NMRI mice; mice): did not increase
- plasma aspartate aminotransferase (AST) (NMRI mice; mice): moderately increased with escalating doses
- total serum bilirubin (NMRI mice; mice): did not increase
- liver lesions (pilot study) (NMRI mice; mouse, in vivo, po, 400 mg/kg): no liver lesions were observed
